Starred links: 1 amine or outer side, 2 acyl side, 3 side chain; linkers in the order of their positions; H or OH if unused. Positions of bridges follow the written chain, without caps; N, C: chain ends. Non-standard residues stand in square brackets, D forms with d. Residues, ends and D or L forms follow the SMILES beside them. *: point of attachment. X3 = CN(CCCCC(=O)N[C@@H](CS[*:2])C(=O)[*:1])[*:3]; Trp(7-Me) = Cc1cccc2c(C[C@H](N)C(=O)O)c[nH]c12; X1 = O=C(CCCCN[*:3])N[C@@H](CS[*:2])C(=O)[*:1]; 2Nal = N[C@@H](Cc1ccc2ccccc2c1)C(=O)O; AEF = NCCOc1ccc(C[C@H](N)C(=O)O)cc1; X4 = CN(CCCCCC(=O)[*:2])[*:1]; αMeL = CC(C)C[C@](C)(N)C(=O)O; Thp = NC1(C(=O)O)CCOCC1; Me2NCH2CH2 = CN(C)CC*; Aib = CC(C)(N)C(=O)O; Ava = NCCCCC(=O)O; βAla = NCCC(=O)O; Sar = CNCC(=O)O
Columns and labels:
Pepsin = test system: T1, Pepsin; assay: Protease stability in simulated gastric fluid (Pepsin-SGF, FaSSGF); format: in vitro ADME; details: simulated gastric fluid with pepsin (Pepsin-SGF), 60 min, 1 μM peptide, 37° C., read-out: FaSSGF 60 (min), remaining percent of peptide
T1 construct: purchased Merck Millipore
Summary of the method: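 LCMS/MS peak areas, normalised to the time-0 sample as 100%, give percent remaining. Conditions: 37° C incubation of 1 μM final peptide in simulated gastric fluid with pepsin; ethanol/0.1% HCOOH quench at 0, 60, 120, 240 min.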

[1] = test system: IL-23 induced STAT3 signaling in HEK-Blue™ IL-23 cells; assay: IL-23 induced STAT3 signaling in HEK-Blue IL-23 cells (SEAP reporter); format: cell-based; details: human IL23 0.25 ng/ml, read-out: pSTAT3
Summary of the method: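 Secreted SEAP, read at OD 620-655 nm after 45 min QUANTI-Blue development, reports STAT3 activation. Beforehand, cells were exposed to peptide dilutions for 60 min at 37 °C and then to 0.25 ng/ml final human IL-23 overnight, at 10,000 cells/well.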

[2] = Chemical stability assessment of peptides (relative purity loss); format: physicochemical; details: 24 hours at 37° C.; for Chemical stability (relative purity loss) Buffer pH 1.2: 50 mM HCl pH 1.2 + acetonitrile (1:1); for Chemical stability (relative purity loss) Buffer pH 6.5: 50 mM phosphate buffer pH 6.5 + acetonitrile (1:1); for Chemical stability (relative purity loss) Buffer pH 7.4: 50 mM phosphate buffer pH 7.4 + acetonitrile (1:1)
Summary of the method: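 Peptide solutions at 1 mg/ml (purity-corrected) in 1:1 acetonitrile with 50 mM HCl pH 1.2, or 50 mM phosphate pH 6.5 or pH 7.4, held 24 hours at 2° C. and 37° C. Supernatants analysed by UHPLC-UV; relative purity loss taken as percent drop in peak-area purity from 0 to 24 hours at 37° C.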

[3] = target: T2, human interleukin-23 receptor (recombinant human IL-23R-Fc chimera) (Homo sapiens, UniProt Q5VWK5); assay: Human ELISA IL23/IL23R (assay for specific human IL23R antagonists); format: binding; details: Table 10; read-out: Human ELISA IL23/IL23R IC50
T2 construct: Fc (IgG Fc fusion)
Summary of the method: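 Competition format: peptide dilutions compete for IL23R-Fc chimera (0.1 μg/ml final, 60 min, room temperature) binding to immobilized human IL23 coated at […] overnight at 4 °C. Read-out is fluorogenic HRP signal from goat anti-hu-IgG1 detecting captured receptor.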

Pancreatin = assay: Protease stability in simulated intestinal fluid (Pancreatin-SIF, FaSSIF); format: in vitro ADME; details: 1 μM peptide, 37° C.; for remaining at 1 h, 1 µM: 60 min, read-out: FaSSIF 60 (min), remaining percent of peptide; for remaining at 2 h, 1 µM: 120 min, read-out: FaSSIF 120 (min), remaining percent of peptide; for remaining at 4 h, 1 µM: 240 min, read-out: FaSSIF 240 (min), remaining percent of peptide
Summary of the method: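 LC-MS/MS peak areas at 0, 60, 120 and 240 min, normalised to time 0 as 100%, give percent remaining. Reactions used 1 μM final peptide at 37° C in pancreatin-SIF (1 mg pancreatin in 10 mL SIF concentrate) and were stopped with ethanol containing 0.1% HCOOH.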

| SMILES | remaining at 1 h, 1 µM (Pepsin) [%] | IC50 [1] [nM] | Chemical stability (relative purity loss) Buffer pH 1.2 [2] [%] | Chemical stability (relative purity loss) Buffer pH 6.5 [2] [%] | Chemical stability (relative purity loss) Buffer pH 7.4 [2] [%] | IC50 [3] [nM] | remaining at 1 h, 1 µM (Pancreatin) [%] | remaining at 2 h, 1 µM (Pancreatin) [%] | remaining at 4 h, 1 µM (Pancreatin) [%] |
| --- | --- | --- | --- | --- | --- | --- | --- | --- | --- |
| CC(=O)N[C@H]1CCCCNC(=O)[C@@H]2CSSC[C@H](NC(=O)[C@H](CCC(N)=O)NC(=O)[C@H](Cc3c[nH]c4ccccc34)NC1=O)C(=O)N[C@@H](Cc1ccc(OCCN(C)C)cc1)C(=O)N[C@@H](Cc1ccc3ccccc3c1)C(=O)NC1(CCOCC1)C(=O)N[C@H](C(=O)N[C@@H](C)C(=O)N[C@H](CC(C)C)C(N)=O)CCC(=O)NCCCCC(=O)N2 [compound 33] (Ac-KWQCY(Me2NCH2CH2)[2Nal][Thp]EA[dL]-NH2; linker 1-4-8 via X1) | 100 | 53.8 | 5.9 | 0.5 | 0.1 | 0.56 | 100 | 100 | 85 |
| CC(=O)NCCCC[C@@H]1NC(=O)[C@H](Cc2c[nH]c3c(C)cccc23)NC(=O)[C@H]([C@@H](C)O)NC(=O)[C@H](CC(N)=O)NC(=O)[C@@H]2CSSC[C@H](NC1=O)C(=O)N[C@@H](Cc1ccc(OCCN(C)C)cc1)C(=O)N[C@@H](Cc1ccc3ccccc3c1)C(=O)NC(C)(C)C(=O)N[C@H](C(=O)N[C@@H](CC(N)=O)C(=O)N[C@@H](Cc1c[nH]cn1)C(=O)N(C)CC(N)=O)CCC(=O)NCCCCC(=O)N2 [compound 45] ([Ava]CNT[Trp(7-Me)]K(Ac)CY(Me2NCH2CH2)[2Nal][Aib]ENH[Sar]-NH2; disulfide 2-7; lactam N-11) | 100 | 0.67 | 15.7 | 0.0 | 2.3 | 0.32 | 82 | 83 | 74 |
| CC(=O)NCCCC[C@@H]1NC(=O)[C@H](Cc2c[nH]c3c(C)cccc23)NC(=O)[C@H]([C@@H](C)O)NC(=O)[C@H](CC(N)=O)NC(=O)[C@@H]2CSSC[C@H](NC1=O)C(=O)N[C@@H](Cc1ccc(OCCN(C)C)cc1)C(=O)N[C@@H](Cc1ccc3ccccc3c1)C(=O)N[C@@](C)(CC(C)C)C(=O)N[C@H](C(=O)N[C@@H](CC(N)=O)C(=O)N[C@@H](Cc1c[nH]cn1)C(=O)NCCC(N)=O)CCC(=O)NCCCCC(=O)N2 [compound 50] ([Ava]CNT[Trp(7-Me)]K(Ac)CY(Me2NCH2CH2)[2Nal][αMeL]ENH[βAla]-NH2; disulfide 2-7; lactam N-11) | 99 | 0.98 | 13.0 | 0.7 | 1.5 | 0.29 | 95 | 85 | 85 |
| CC(=O)N[C@H]1CCCCNC(=O)[C@@H]2CSSC[C@H](NC(=O)[C@H](CCC(N)=O)NC(=O)[C@H](Cc3c[nH]c4ccccc34)NC1=O)C(=O)N[C@@H](Cc1ccc(OCCN)cc1)C(=O)N[C@@H](Cc1ccc3ccccc3c1)C(=O)NC1(CCOCC1)C(=O)N[C@H](C(=O)N[C@@H](CC(N)=O)C(=O)NCC(N)=O)CCC(=O)N(C)CCCCC(=O)N2 [compound 16] (Ac-KWQC[AEF][2Nal][Thp]ENG-NH2; linker 1-4-8 via X3) | 62 | 32.1 | 13.2 | 1.1 | 4.2 | 0.33 | 83 | 67 | 50 |
| CC(=O)N[C@H]1CCCCNC(=O)[C@@H]2CSSC[C@H](NC(=O)[C@H](CCC(N)=O)NC(=O)[C@H](Cc3c[nH]c4ccccc34)NC1=O)C(=O)N[C@@H](Cc1ccc(OCCN)cc1)C(=O)N[C@@H](Cc1ccc3ccccc3c1)C(=O)N[C@@](C)(CC(C)C)C(=O)N[C@H](C(=O)N[C@@H](C)C(=O)N[C@H](CC(C)C)C(N)=O)CCC(=O)N(C)CCCCC(=O)N2 [compound 44] (Ac-KWQC[AEF][2Nal][αMeL]EA[dL]-NH2; linker 1-4-8 via X3) | 88 | 42.5 | 4.1 | 0.1 | 0.2 | 1.16 | 64 | 61 | 59 |
| CC(=O)N[C@H]1CCCCNC(=O)[C@@H]2CSSC[C@H](NC(=O)[C@H](CCC(N)=O)NC(=O)[C@H](Cc3c[nH]c4ccccc34)NC1=O)C(=O)N[C@@H](Cc1ccc(OCCN)cc1)C(=O)N[C@@H](Cc1ccc3ccccc3c1)C(=O)NC1(CCOCC1)C(=O)N[C@H](C(=O)N[C@@H](CC(N)=O)C(=O)N[C@@H](CC(N)=O)C(N)=O)CCC(=O)N(C)CCCCC(=O)N2 [compound 13] (Ac-KWQC[AEF][2Nal][Thp]ENN-NH2; linker 1-4-8 via X3) | 73 | 32 | 23.3 | 0.2 | 1.6 | 0.61 | 83 | 70 | 54 |
| CC(=O)N[C@H]1CCCCNC(=O)[C@@H]2CSSC[C@H](NC(=O)[C@H](CCC(N)=O)NC(=O)[C@H](Cc3c[nH]c4ccccc34)NC1=O)C(=O)N[C@@H](Cc1ccc(OCCN)cc1)C(=O)N[C@@H](Cc1ccc3ccccc3c1)C(=O)NC1(CCOCC1)C(=O)N[C@H](C(=O)N[C@@H](C)C(=O)N[C@H](CC(C)C)C(N)=O)CCC(=O)N(C)CCCCC(=O)N2 [compound 34] (Ac-KWQC[AEF][2Nal][Thp]EA[dL]-NH2; linker 1-4-8 via X3) | 84 | 13.3 | 7.9 | 0.0 | 0.3 | 0.57 | 100 | 99 | 96 |
| CC(C)C[C@@H](NC(=O)[C@H](CC(N)=O)NC(=O)[C@@H]1CC(=O)N(C)CCCCCC(=O)N[C@H]2CSSC[C@H](NC(=O)[C@H](CCC(N)=O)NC(=O)[C@H](Cc3c[nH]c4ccccc34)NC(=O)[C@H]([C@@H](C)O)NC(=O)[C@H](CC(N)=O)NC2=O)C(=O)N[C@@H](Cc2ccc(OCCN(C)C)cc2)C(=O)N[C@@H](Cc2ccc3ccccc3c2)C(=O)N[C@@](C)(CC(C)C)C(=O)N1)C(N)=O [compound 40] ([X4]CNTWQCY(Me2NCH2CH2)[2Nal][αMeL]DN[dL]-NH2; disulfide 2-7; lactam N-11) | 12 | 50.8 | 8.3 | 1.3 | 3.0 | 1 | 77 | 70 | 54 |
| CC(=O)NCCCC[C@@H]1NC(=O)[C@H](Cc2c[nH]c3c(C)cccc23)NC(=O)[C@H]([C@@H](C)O)NC(=O)[C@H](CC(N)=O)NC(=O)[C@@H]2CSSC[C@H](NC1=O)C(=O)N[C@@H](Cc1ccc(OCCN(C)C)cc1)C(=O)N[C@@H](Cc1ccc3ccccc3c1)C(=O)NC(C)(C)C(=O)N[C@H](C(=O)N[C@@H](CC(N)=O)C(=O)N[C@@H](Cc1c[nH]cn1)C(=O)NCCC(N)=O)CCC(=O)NCCCCC(=O)N2 [compound 48] ([Ava]CNT[Trp(7-Me)]K(Ac)CY(Me2NCH2CH2)[2Nal][Aib]ENH[βAla]-NH2; disulfide 2-7; lactam N-11) | 100 | 0.6 | 12.5 | 1.3 | 2.8 | 0.28 | 80 | 80 | 76 |
